Laboratory results published in patent US20240164378A1, “SYNERGISTIC PLANT GROWTH STIMULANT COMPOSITIONS OF POTASSIUM MONO/DI-FORMATE WITH CARBOXYLIC ACIDS” (FERTIS INDIA PVT. LTD., priority 2021, published 2024).

Columns and labels:
paddy grains [1] = experiment: Total protein content in paddy grains; assay type: in vivo; details: treatment applied with farmer practice (NPK)
paddy grains [2] = experiment: Total phenol estimation in paddy grains; assay type: in vivo; details: treatment applied with farmer practice (NPK)

Row | Compound | % of Protein (total protein content in paddy grains) (paddy grains [1]) | Total phenol Conc ppm in paddy grains (paddy grains [2])
1 | CC1=CC(=O)CC(C)(C)[C@@]1(O)/C=C/C(C)=C\C(=O)O [Abscisic acid] | 0.008% | 18.78 ppm
2 | C=C1C[C@]23C[C@@]1(O)CC[C@H]2[C@@]12C=C[C@H](O)[C@@](C)(C(=O)O1)[C@H]2[C@@H]3C(=O)O [Gibberellic acid] | 0.008% | 16.7 ppm
3 | COc1ccc2[nH]cc(CCNC(C)=O)c2c1 [Melatonin] | – | 17.9 ppm
4 | O=CO.O=C[O-].[K+] [Potassium diformate] | 0.012% | 19.97 ppm
5 | O=C[O-].[K+] [Potassium formate] | 0.011% | 19.88 ppm
